Experimental data from PubChem BioAssay (NCI).
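Exposure lasted 48 hours, with cells grown in 96-well plates and compounds tested at five concentrations. TGI marks complete inhibition of growth.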

What was measured:
Assay in all cases: DTP human tumour cell line panel, 48 h
KM12 colon = system: KM12 colon
MDA-MB-231 breast = system: MDA-MB-231 breast
OVCAR-3 ovarian = system: OVCAR-3 ovarian
RPMI-8226 leukemia = system: RPMI-8226 leukemia
SF-268 CNS = system: SF-268 CNS
SF-295 CNS = system: SF-295 CNS
SK-MEL-5 melanoma = system: SK-MEL-5 melanoma
T-47D breast = system: T-47D breast
TK-10 renal = system: TK-10 renal
U251 CNS = system: U251 CNS

Structure (SMILES) | TGI (KM12 colon) [µM] | TGI (MDA-MB-231 breast) [µM] | TGI (OVCAR-3 ovarian) [µM] | TGI (RPMI-8226 leukemia) [µM] | TGI (SF-268 CNS) [µM] | TGI (SF-295 CNS) [µM] | TGI (SK-MEL-5 melanoma) [µM] | TGI (T-47D breast) [µM] | TGI (TK-10 renal) [µM] | TGI (U251 CNS) [µM]
COC(=O)/C(=N\N)C(C(=O)C(=O)Nc1cc(Cl)ccc1Cl)c1nc2ccc([N+](=O)[O-])cc2[nH]c1=O (stereo not given) | > 100 | > 100 | > 100 | > 100 | > 100 | > 100 | > 100 | > 100 | > 100 | > 100
COC(=O)/C=C1\C(CO[Si](C)(C)C(C)(C)C)OC(n2ccc(=O)[nH]c2=O)C1O (stereo not given) | > 39.4 | > 100 | 54.5 | 29.4 | 2.39 | > 100 | 21.7 | > 22.3 | > 100 | > 87.3
COC(=O)c1ccc(CCC2=CC(=O)C=CC2=O)cc1 | 27 | > 68.4 | 23.2 | 5.71 | 31.7 | 30.6 | 30.2 | 8.79 | 33 | 24.8
COC(=O)C1CC2CC1C1C2SC(F)(F)C1(F)F (stereo not given) | > 100 | > 100 | > 100 | > 100 | > 100 | > 100 | > 100 | > 100 | > 100 | > 100
CCc1nc(N)nc(N)c1-c1ccc(N2CCOCC2)c(N=[N+]=[N-])c1 | > 100 | > 100 | > 100 | > 100 | > 100 | > 100 | > 100 | > 100 | > 100 | > 100
CC(C)(C)n1c(=O)n2c(-c3ccccc3)c(-c3ccccc3)n2c1=O | > 100 | > 100 | > 100 | 61.1 | > 100 | > 100 | > 100 | > 100 | > 100 | > 100
COc1ccc(NC(=S)c2ccc([N+](=O)[O-])o2)cc1 | 3.55 | 6.35 | 4.42 | 4.72 | 9.76 | 10.6 | 13.1 | 17.3 | 9.84 | 2.55
Cc1cn([C@H]2C[C@@H](N3C(=O)c4ccccc4C3=O)[C@@H](CO[Si](C)(C)C(C)(C)C)O2)c(=O)[nH]c1=O | > 100 | > 100 | > 100 | > 100 | > 100 | > 100 | > 100 | > 100 | > 100 | > 100
NCCc1ccc(S(=O)(=O)O)cc1[N+](=O)[O-] | > 100 | > 100 | > 100 | > 100 | > 100 | > 100 | > 100 | > 100 | > 100 | > 100
Clc1ccc(C(OCn2ccnc2)c2nc3ccccc3[nH]2)c(Cl)c1 (stereo not given) | > 100 | > 100 | > 100 | 92.4 | > 100 | > 100 | 35.2 | > 100 | > 100 | > 100
Cc1nc2ccc(S(=O)(=O)O)cc2c(=O)n1-c1ccc(C(=O)NN2C(=O)C(Cl)C2c2cccs2)cc1 (stereo not given) | > 100 | 45.1 | > 100 | > 100 | 44.3 | > 100 | > 100 | > 100 | > 100 | > 100
COc1cc(CCN)c(OC)c(OC)c1 | > 100 | > 100 | > 100 | > 100 | > 100 | > 100 | 54.9 | > 100 | > 100 | > 100
C(=C\c1cc[n+](CCc2ccccc2)cc1)/c1ccccc1 | 18.2 | 29.1 | 26.5 | 53.2 | 74.5 | > 100 | 5.73 | 71.7 | > 100 | 18.9
N/C(=N\N=C\c1nc2ccccc2o1)c1cnccn1 | > 100 | > 100 | > 100 | > 100 | > 100 | > 100 | > 100 | > 100 | > 100 | > 100
COC(=O)[C@@H]1Cc2ccc(OC)c(c2)OCCC(=O)N1 | > 100 | > 100 | > 100 | > 100 | > 100 | > 100 | > 100 | > 100 | > 100 | > 100
CCOC(=O)c1nc2ccc(C(F)(F)F)cc2nc1Oc1ccc(OC)cc1 | > 100 | > 100 | > 100 | > 100 | > 100 | > 100 | > 100 | > 100 | > 100 | > 100

Structure (SMILES) | TGI (KM12 colon) [µM] | TGI (MDA-MB-231 breast) [µM] | TGI (OVCAR-3 ovarian) [µM] | TGI (RPMI-8226 leukemia) [µM] | TGI (SF-268 CNS) [µM] | TGI (SF-295 CNS) [µM] | TGI (SK-MEL-5 melanoma) [µM] | TGI (T-47D breast) [µM] | TGI (TK-10 renal) [µM] | TGI (U251 CNS) [µM]
CCN(CC)/[N+]([O-])=N/OS(=O)(=O)N(C)C | > 100 | > 100 | > 100 | > 100 | > 100 | > 100 | > 100 | > 100 | > 100 | > 100
NC(CCC(=O)O)C(=O)NC(Cc1ccc(N(CCCl)CCCl)cc1)C(=O)O (stereo not given) | > 100 | > 100 | > 100 | > 100 | > 100 | > 100 | > 100 | > 100 | > 100 | > 100
CC1(c2ccc(Cl)cc2)C=C(c2ccc(Cl)cc2)C(C#N)=C(C(C#N)C#N)N1 (stereo not given) | 38.6 | 54.9 | 21.3 | > 100 | 23.9 | 33.9 | 28.2 | 46.9 | 33.8 | 33
CC(C)C(=O)Cc1ccc2ccccc2n1 | > 100 | > 100 | > 100 | 19.9 | > 100 | > 100 | > 100 | > 100 | > 100 | > 100
N#CC1=C(S)N(C2OC(CO)C(O)C(O)C2O)C(c2ccccc2)=CC1c1ccco1 (stereo not given) | > 100 | > 100 | > 100 | > 100 | > 100 | > 100 | > 100 | 99.5 | > 100 | 53.5
C=CCN(c1cc(O)c2c(c(C)cn2S(=O)(=O)c2ccccc2)c1[N+](=O)[O-])S(C)(=O)=O | > 100 | > 100 | > 100 | > 100 | > 100 | > 100 | > 100 | > 100 | > 100 | > 100
NS(=O)(=O)c1c(O)c2ccccc2oc1=O | > 100 | > 100 | > 100 | > 100 | > 100 | > 100 | > 100 | > 100 | > 100 | > 100
CC1C(OS(=O)(=O)c2ccc3[nH]c(=S)sc3c2)CC2C3(C)CCC2(C(C)C(=O)O)C(O)C13 (stereo not given) | 52.4 | > 100 | 42.5 | 40.8 | > 100 | 95.1 | 34.5 | 48.3 | > 100 | 38.6
CC[C@@H]1CC[C@@H]2[C@H](CC[C@]3(C)[C@@H](O[N+](=O)[O-])CC[C@@H]23)[C@H]1C(C)=O | 80.7 | 75.1 | > 100 | 49.9 | > 100 | > 100 | 40.4 | 96.4 | > 100 | > 100
O=C1/C(=C/c2ccc(Br)s2)NC(=S)N1CN1CCCCC1 | > 100 | > 100 | 59.6 | 50.8 | > 100 | 91.2 | 23.8 | > 100 | > 100 | > 100
CS(=O)(=O)CCC1CCC(=O)O1 (stereo not given) | > 100 | > 100 | > 100 | > 100 | > 100 | > 100 | > 100 | > 100 | > 100 | > 100
CCCCCC(=O)OC[n+]1cccc(-c2c(COC(=O)NC(C)C)c(COC(=O)NC(C)C)c3n2CCC3)c1 | > 100 | > 100 | > 100 | > 100 | > 100 | > 100 | > 100 | > 100 | > 100 | > 100
O=[N+]([O-])c1ccc2c3c1[C@@H]1O[C@@H]1c1cccc(c1-3)[C@@H]1O[C@H]21 | 10.1 | 15.3 | 10.9 | > 100 | 10.6 | 40.8 | 27.2 | 12 | > 51.2 | 11.8
COC(=O)C(=O)C(C(=O)C(=O)Nc1cccc(OC)c1)c1nc2ccc(Cl)cc2[nH]c1=O (stereo not given) | > 100 | > 100 | > 100 | > 100 | > 100 | > 100 | > 100 | > 100 | > 100 | > 100
COC(=O)c1sc(=S)sc1SCc1cccc(CSc2sc(=S)sc2C(=O)OC)c1 | > 100 | > 100 | > 100 | > 100 | > 100 | > 100 | > 100 | > 100 | 96.9 | > 100
